Data on 3 compounds can be found in publication PMC8980233, “Differentiating the Neuropharmacological Properties of Nicotinic Acetylcholine Receptor-Activating Alkaloids” (Frontiers in Pharmacology, 2022).

Entries after “also recorded” stand apart in the source; their conditions may differ.

As usually defined, the EC50 is the concentration at which the effect is half-maximal. Higher therefore signals lower potency in that assay.

Data set [1] relates to norepinephrine release from hippocampal synaptosomes. In words: In vitro [3H]norepinephrine release from crude hippocampal synaptosomes. The data set is classed as biochemical, rat. As for the experimental part: In vitro neurotransmitter assays using crude synaptosome preparations were conducted by Gifford Biosciences Limited (Birmingham, UK) based on the previously described protocols ([Clarke and Reuben, 1996]; [Gifford et al., 2000]). In brief, male Sprague Dawley rats (200–225 g) were terminated by cervical dislocation followed by decapitation. The striatums or hippocampi were dissected and homogenized in ice-cold 0.32 M sucrose using a Dounce homogenizer. The homogenates were centrifuged at 100 x g for 5 min to pellet cell debris. The supernatants were collected and centrifuged at 17,000 x g for 10 min at 4°C to pellet crude synaptosomes. The pellets were resuspended in 5 ml Krebs buffer, pH 7.4 (in mM (pH 7.4): 120 NaCl, 3.3 KCl, 1.2 MgSO4, 1.3 CaCl2, 1.2 K2HPO4, 25 HEPES, 11 glucose, 0.01 ascorbic acid, 0.025 pargyline, and 0.1% BSA containing 2 μCi/ml [^3H]norepinephrine for hippocampal synaptosomes or 1 μCi/ml [^3H]dopamine for striatal synaptosomes and incubated for 15 min at 35°C with gentle shaking.
The [^3H]norepinephrine- or [^3H]dopamine-treated crude synaptosomes were loaded onto closed filter chambers containing Whatman® Grade GF/C Glass Microfiber filters (Sigma-Aldrich, Merck KGaA, Darmstadt, Germany) and placed in a superfusion system. Preoxygenated Krebs buffer was perfused through the chambers at a rate of 1 ml/min at 37 °C using an 8-channel peristaltic pump. To ensure an even flow over the synaptosomal bed, trapped air bubbles were removed from the filters prior to collection of the fractions. After a superfusion period of 40 min, three basal fractions (1.5 ml/fraction) were collected first, followed by three fractions (1.5 ml/fraction) containing the test compound. Two additional fractions were collected in the presence of 30 mM KCl to depolarize the synaptosomes. A 0.4-ml aliquot of each fraction was then transferred to a counting plate, and a scintillation cocktail was added to measure the radioactivity using a Wallac® TriLux 1450 MicroBeta counter (PerkinElmer Life Sciences, Zaventem, Belgium). Once all fractions were collected, the filters holding the crude synaptosome samples were removed and dried overnight at room temperature. On the following day, the scintillation cocktail was added and the filters were counted to determine residual radioactivity.
Compound-evoked release of neurotransmitters was calculated by subtracting the counts per minute (CPM) in the two basal fractions collected immediately prior to compound addition from those in the two fractions collected immediately following compound addition. The compound-evoked release was then expressed as a percentage of the basal release from that chamber. Potassium-evoked release was calculated by subtracting the CPM in the fraction immediately prior to KCl addition from the CPM in the […] immediately following potassium addition. Stimulated release was calculated as the percentage of basal release for that chamber. The increase in stimulated release above the baseline (no compound) release for that experimental run was determined, and the latter values were plotted on the graphs. Dose–response curves were determined using non-linear curve fitting in Prism (GraphPad Software, Inc, San Diego, CA, United States). All experiments were repeated at least three times.

The conditions of data set [2]: 0.5 mg/kg; ref Petersen et al. (1984); cited from earlier work.
Data set [3] deals with T1, α7 nAChR (Homo sapiens, UniProt P36544). Briefly: nAChR functional assay, automated patch-clamp. The settings on record: mean ± S.D.; no effect = up to 33 μM. The class given is cell-based. As for the experimental part:
Electrophysiological responses were recorded using an automated patch-clamp Patchliner Octo® system (Nanion Technologies, Munich, Germany) equipped with two EPC-10 Quadro patch-clamp amplifiers (HEKA Elektronik, Lambrecht, Germany) as described by ([Alijevic et al., 2020]). In brief, Chinese hamster ovary (CHO) or human embryonic kidney-293 (HEK-293) cells stably expressing human nAChRs (Charles River Laboratories, Wilmington, MA, United States) were maintained in DMEM/F12 medium (Gibco, Thermo Fisher Scientific, Waltham, MA, United States) supplemented with 10% heat-inactivated fetal bovine serum (FBS; Gibco) and penicillin–streptomycin (100 U/mL and 0.1 mg/ml, respectively; Sigma-Aldrich, St. Louis, MO, United States) at 37°C in 5% CO2 and 70% humidity. The following selection antibiotics were used for the cell lines: G418 (0.25 mg/ml; Sigma-Aldrich) and Zeocin^TM (0.4 mg/ml; InvivoGen, San Diego, CA, United States) for α7/Ric3 nAChR and α3β4 nAChR cells; puromycin (8 μg/ml; InvivoGen) and hygromycin B (0.4 mg/ml; Gibco) for α4β2 nAChR cells; and G418 (0.5 mg/ml), puromycin (0.25 μg/ml), and hygromycin B (0.02 mg/ml) for α6/3β2/β3 nAChR cells. The cells were used for characterizing nAChR pharmacology, because no endogenous ionotropic nicotinic receptors are found ([Roncarati et al., 2008]; [Papke and Smith-Maxwell, 2009]; [Kirsch et al., 2016]; [Scheffel et al., 2018]). The subunit distributions in the cells have been previously described ([Alijevic et al., 2020]). The human nAChRs were selected due to the lack of commercially available nAChR expression systems for mouse or zebrafish. The translatability of findings between zebrafish and human nAChR activities have been previously reported ([Papke and Smith-Maxwell, 2009]; [Papke et al., 2012]; [Alijevic et al., 2020]).
On the day of the experiment, nAChR-expressing cells were suspended in extracellular solution (in mM: 140 NaCl, 4KCl, one MgCl2, two CaCl2, five glucose, and 10 HEPES, adjusted to pH 7.4 with NaOH (298 mOsmol)), then placed in the Patchliner Octo® system. The internal solution contained in mM: 50 KCl, 60 kF, 10 NaCl, 20 EGTA, and 10 HEPES, adjusted to pH 7.2 with KOH (285 mOsmol). […] Data were analyzed using the Patchmaster software and corrected for leak current. The data acceptance criteria were as follows: seal resistance >100 MΩ; seal resistance loss variation <50%; access resistance <20 MΩ; and minimum current amplitude elicited by maximal effect concentration acetylcholine >50 pA. Offline data analysis was performed in OpenOffice™ (v4.1.2; The Apache Software Foundation, Wakefield, MA, United States). Data are presented as mean ± S.D. All experiments were performed at room temperature (24°C) and repeated at least three times. Igor Pro (v6.2.2.2; WaveMetrics, Lake Oswego, OR, United States) or Prism (v8.2.1) were used for assessing the concentration–response curves.

Data set [4] has as its target α4β2 nAChR (Homo sapiens, UniProt P17787+P43681). Briefly: Radioligand displacement binding assay.
Method: (§1) All binding and functional assays for molecular target characterization were conducted by Eurofins Cerep SA (Celle-Lévescault, France) and Eurofins Panlabs Discovery Services Taiwan, Ltd. (New Taipei City, Taiwan) using their standard in vitro binding and functional assays (Supplementary Material S2). […] Negative values were considered to be an artifact arising from, for example, compounds interfering with the assay readout.
(§2) The radioligand displacement binding assays employed the gold standard filtration method using membrane preparations from stable cell lines (HEK-293 or CHO cells) expressing human or rodent target proteins to determine the interaction of the compounds with specific receptors, channels, and transporters. For this purpose, the competitive binding of test compounds against a [^125I]- [^3H]-, or [^35S]-labelled agonist and/or antagonist was determined.
(§3) Assay Source Ligand Conc. Kd Non Specific Incubation Detection Bibl.
(§4) N neuronal α7 (h) SH-SY5Y cells [125I]α-bungarotoxin 0.05 nM 0.34 nM α-bungarotoxin 120 min Scintillation 347
(§5) (antagonist radioligand) (human (1 µM) 37°C counting
Data set [5] addresses T1, α7 nAChR. Briefly: Radioligand displacement binding assay.
Method: as §1, §2, §3, §4, §5

T1 sequence (P36544 23-502): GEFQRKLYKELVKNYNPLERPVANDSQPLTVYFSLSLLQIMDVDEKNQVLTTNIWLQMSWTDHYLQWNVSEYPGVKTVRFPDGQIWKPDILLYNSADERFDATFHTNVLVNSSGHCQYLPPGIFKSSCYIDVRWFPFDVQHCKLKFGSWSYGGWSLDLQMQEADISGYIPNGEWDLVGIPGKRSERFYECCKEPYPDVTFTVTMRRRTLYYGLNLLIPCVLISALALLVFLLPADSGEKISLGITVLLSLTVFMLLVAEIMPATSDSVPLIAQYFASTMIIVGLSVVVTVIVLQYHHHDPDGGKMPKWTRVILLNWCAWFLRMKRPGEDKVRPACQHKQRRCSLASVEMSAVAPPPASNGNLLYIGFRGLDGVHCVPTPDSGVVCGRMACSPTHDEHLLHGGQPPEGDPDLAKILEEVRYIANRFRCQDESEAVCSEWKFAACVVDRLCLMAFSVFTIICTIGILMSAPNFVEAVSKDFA
Chain of α4β2 nAChR (P43681 29-627 limits assumed): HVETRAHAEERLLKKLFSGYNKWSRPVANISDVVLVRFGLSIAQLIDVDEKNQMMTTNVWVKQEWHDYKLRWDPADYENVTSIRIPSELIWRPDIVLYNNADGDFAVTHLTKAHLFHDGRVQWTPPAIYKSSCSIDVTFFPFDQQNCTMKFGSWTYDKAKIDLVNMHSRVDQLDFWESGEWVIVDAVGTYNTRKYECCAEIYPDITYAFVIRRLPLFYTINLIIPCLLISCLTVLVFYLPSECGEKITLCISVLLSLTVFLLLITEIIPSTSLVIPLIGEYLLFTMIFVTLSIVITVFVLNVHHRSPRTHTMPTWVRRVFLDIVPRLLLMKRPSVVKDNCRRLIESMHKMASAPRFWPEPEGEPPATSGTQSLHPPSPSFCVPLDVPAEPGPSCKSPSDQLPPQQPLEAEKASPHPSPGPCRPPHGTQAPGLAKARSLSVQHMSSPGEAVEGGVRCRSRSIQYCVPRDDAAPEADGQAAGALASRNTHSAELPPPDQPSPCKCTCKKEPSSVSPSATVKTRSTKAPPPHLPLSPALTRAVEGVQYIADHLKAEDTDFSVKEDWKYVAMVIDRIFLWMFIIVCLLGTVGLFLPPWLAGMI
Chain of α4β2 nAChR (P17787 26-502): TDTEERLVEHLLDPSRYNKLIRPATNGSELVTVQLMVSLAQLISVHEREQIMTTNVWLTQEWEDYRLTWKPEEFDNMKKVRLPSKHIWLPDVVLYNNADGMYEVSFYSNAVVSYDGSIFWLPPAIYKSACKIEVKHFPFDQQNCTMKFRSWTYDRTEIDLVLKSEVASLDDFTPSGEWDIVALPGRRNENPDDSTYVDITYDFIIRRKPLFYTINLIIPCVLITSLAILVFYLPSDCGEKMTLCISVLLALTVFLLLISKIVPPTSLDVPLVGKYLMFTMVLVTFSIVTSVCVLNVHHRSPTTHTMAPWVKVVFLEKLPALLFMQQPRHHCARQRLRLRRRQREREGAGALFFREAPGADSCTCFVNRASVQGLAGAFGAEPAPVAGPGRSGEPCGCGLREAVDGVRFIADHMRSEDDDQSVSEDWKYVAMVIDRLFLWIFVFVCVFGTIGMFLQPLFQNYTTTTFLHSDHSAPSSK

The compound `CN1CCC[C@H]1c1cccnc1` [Nicotine, (-)-Nicotine] showed an EC50 in data set [1] (hippocampal synaptosomes) of 4.22 µM. Also, the plasma concentration in data set [2] was 5 to 6 µM.
As for `CN1C(=O)CC[C@H]1c1cccnc1` [Cotinine, (-)-cotinine], the “α7 nAChR EC50 in µM” value in data set [3] was “no detectable activities; also recorded: No effect*”. The “binding for α4β2 nAChR” value in data set [4] is on record as “barely detectable”. Further, in data set [5], the “binding for α7 nAChR” value is given as “undetectable”.
On to `C1=CCC(c2cccnc2)NC1` (racemic) [Anatabine, (±)-Anatabine], for which the “increase in norepinephrine release” value in data set [1] (at the higher doses) is recorded as around 20%.
